Measurements published in patent publication US5362364A, “Process for producing alkaline paper” (Mitsubishi Paper Mills Limited, priority 1990, dated 1994).

Experiments:
[1] = tested on: slime; experiment: ninhydrin reaction of the paper stock filtrate (slime formation); conditions: for slime inhibiting effect: slimecide added in advance to cationic starch, compared with conventional direct addition
Protocol: (§1) A part of the paper stock as obtained above was stored at 32° C. for 7 days and then, filtered by means of a wire screen. The filtrate was subjected to ninhydrin reaction and the effectiveness of the slimecide controlling agent was evaluated based on the result of the ninhydrin reaction. The filtrate was called "Sample 1-2".
Ninhydrin reaction was effected by adding 0.5 ml of a 1% aqueous solution of nonhydrin to 10 ml of the filtrate, and the result was evaluated depending on the degree of color change of the resulting solution to reddish purple.
as §1, with “net.” for “screen.”, “slime” for “slimecide”, “5-2".” for “1-2".”
(§2) Measurement of the sizing degree, evaluation of the mutagenicity, and ninhydrin reaction in Table 3 and Table 4 were conducted in the same manner as in Table 1 and Table 2.

[2] = Stockigt sizing degree of paper according to JIS P 8122; type: physicochemical; conditions: compared with Sample 3-1 and 4-1 (DMTT) or Sample 7-1 and 8-1 (bromonitroalcohol)
Protocol: The paper stock immediately after prepared was used to prepare a hand sheet having a basis weight of 60 g/m^2. The resulting sheet was dried at 80° C. for 5 min. in a hot air drier. The sheet thus prepared was called "Sample 1-1".
In the above, the sizing degree was measured by Testing method for Stockigt sizing degree of paper according to JIS P 8122.
The 0.1% addition of the alkylketene dimer should develop the sizing degree of 20-25 sec. unless other chemicals used together interfere with it.
The paper stock immediately after prepared was used to prepare a handmade sheet having a basis weight of 60 g/m^2. The resulting sheet was dried at 80° C. for 5 min. in a hot air drier. The sheet thus prepared was called "Sample 5-1".
as §2

[3] = tested on: Salmonella typyhimurium TA 100; experiment: mutagenicity test (reverse mutation test) on hand sheet extract, Ministry of Labor Order No. 261; type: cell-based; conditions: compared with Sample 3-1 and 4-1 (DMTT) or Sample 7-1 and 8-1 (bromonitroalcohol)
Protocol: That is, each hand sheet was subjected to extraction using a mixture of benzene/ethanol (9/1, by volume) at 80° C. for three hours, and the resulting extractant was subjected to a reverse mutation test using Salmonella typyhimurium TA 100 without following a metabolism activating method.
When the number of reverse mutation colony increased to twice or more that in the case of dimethyl sulfoxide used as a control solvent, it was determined "positive".

With `O=[N+]([O-])C(Br)(CO)CO` [2-bromo-2-nitropropane-1,3-diol] the “amount of slimecide relative to amount added in conventional manner” value ([1]; slime inhibition with slimecide added in advance to cationic starch, based on paper stock solid matter) was “about 1/10”, the slime inhibiting effect [1] was “slime formation can be effectively inhibited” and the effect on sizing [2] was “nor adversely affects the sizing property”. For the same compound, the safety for man [3] was “neither harmful to man”.
With `CN1CSC(=S)N(C)C1` [DMTT, 3,5-dimethyltetrahydro-1,3,5-2H-thiadiazine-2-thione] the slime inhibiting effect [1] was “excellent slime inhibiting effect” and the effect on sizing [2] was “minimal adverse effect on sizing”.
